We go through seven compounds from article PMC6804113, “Cyclic Peptides Acting as Allosteric Inhibitors of Human Thymidylate Synthase and Cancer Cell Growth” (Molecules, 2019).

pIC50, pKi: −log10 of the molar value. “Also recorded” adds a separate entry of the source. Where two headings read alike, the source gives them in different places. Starred links: 1 amine or outer side, 2 acyl side, 3 side chain; linkers in the order of their positions; H or OH if unused. Positions of bridges follow the written chain, without caps; N, C: chain ends. Residues, ends and D or L forms follow the SMILES beside them. No end group written: not given here. Cysteamide = C(CS[*:3])N[*:1]

In series [1] the target is T1, recombinant human thymidylate synthase (hTS) (Homo sapiens, UniProt P04818).
T1 construct: made in house
The series is described as follows: hTS inhibition assay (spectrophotometric, absorbance at 340 nm). In kind it is biochemical. The conditions noted are these: for % inhibition of hTS: at 500 µM and 37 °C under stirring; for pIC50: room temperature (20–22 °C) under stirring, standard error ±20% of the value.

In series [2] the target is T1, recombinant human thymidylate synthase (hTS). The description is as above. It is filed as biochemical. As to conditions: for % inhibition of hTS / inhibition at 500 µM: at 500 µM and r.t. On the procedure: hTS was purified as previously reported. The enzyme solution was thawed the day of the experiment and the enzyme concentration was determined by UV−Vis spectroscopy (Varian Cary 100, Agilent, Santa Clara, CA, USA) using ε280 = 89000 M^−1 cm^−1 and Mr = 74 229. The thawed protein solution was kept constantly at 4 °C. In this condition, the enzyme was able to reproduce normal kinetic activity values (KM dUMP = 10−12 μM, KM mTHF = 4−6 μM, kcat = 0.8−0.9 s^−1). The peptide solution was mixed or vortexed in order to help solubilization; the precise concentration was determined through UV−Vis spectroscopy. A stock solution of mTHF was prepared in carbonate buffer. The stock was prepared in the range of 5 to 6 mM. A stock solution of dUMP was prepared in bidistilled water in the range of 10−12 mM. Peptide inhibitors were tested without incubation with hTS in […], at 25 °C. A 1 mL amount of assay buffer consisted of 50 mM TES, pH 7.4, containing 25 mM MgCl2, 6.5 mM HCHO, 1 mM EDTA, 75 mM β-mercaptoethanol (β-ME), 0.120 mM dUMP, and 0.060 mM mTHF. Following the addition of the enzyme (300 nM) and inhibitor mixture, the absorbance was monitored at 340 nm in a UV−Vis spectrophotometer for 3 min. In the control sample, an equal aliquot of enzyme alone was added. hTS activity inhibition percentages (I%) values were measured at 0.100−3000 µM concentration of inhibitor. […] The kinetic inhibition pattern was studied for compound 7 [12]. The inhibition values are expressed as mean ± SEM; n = 3.

The test system of a further series is IGROV-1 cells. The series is described as follows: Cytotoxicity, crystal violet cell growth assay, peptides transfected with SAINT-PhD. It is filed as cell-based, human. As to conditions: at 10 and 25 µM, ranking among the 10 cPs, SAINT-PhD delivery. On the procedure:
(§1) The IGROV-1, A2780, and A2780/CP human ovarian cancer cell lines were grown as monolayer in RPMI 1640 medium containing 10% heat-inactivated fetal bovine serum and 50 µg/mL gentamycin sulfate (Euroclone, Devon, UK). Cultures were equilibrated with humidified 5% CO2 in air at 37 °C. The cDDP-resistant variant A2780/CP cell line, derived from the parent A2780 cell line, is about 10-fold resistant to cDDP and was developed by monthly exposure to cDDP, followed by chronic exposure to stepwise increases in cDDP concentration. All studies were performed in Mycoplasma negative cells, as routinely determined with the MycoAlert Mycoplasma detection kit (Lonza, Walkersville, MD, USA).
(§2) Treatment with each peptide was performed according to the standard transfection protocol of the SAINT-PhD delivery system (Synvolux Therapeutics, Leiden, Netherlands). Complexes of peptide (µg) with SAINT-PhD (µL) were prepared at appropriate ratios corresponding to the approximate µM concentrations indicated. For each protein sample, complexes were prepared as follows: for the treatment of a 24-well plate, the appropriate amount of each peptide was diluted in HBS, then SAINT-PhD was pipetted into the solution without vortexing; then, the mixture was incubated for 5 min at room temperature, and filled up to 500 µL with serum-free medium. The culture medium was aspirated from the cells, the SAINT-PhD/peptide complex was added to the wells and incubated 4 h (37 °C, 5% CO2). Afterward, complete RPMI was added to reach the appropriate volume for maintaining the cell culture for the duration of the experiments.
(§3) Cell growth was determined using a modified crystal violet assay. On selected days, the tissue culture medium was removed, and the cell monolayer fixed with methanol and stained with 0.2% crystal violet solution in 20% methanol for at least 30 min. After being washed several times with distilled water to remove excess dye, the cells were left to dry. The incorporated dye was solubilized in acidified isopropanol (1N HCl: 2-propanol, 1:10). After appropriate dilution, absorbance was determined spectrophotometrically at 540 nm. The extracted dye was proportional to cell biomass. The percentage of cytotoxicity was calculated by comparing the absorbance of cultures exposed to the drug to unexposed (control) cultures.

For the next series, the system named is A2780/CP cells. The series is described as above. It is filed as cell-based, human. The conditions noted are these: SAINT-PhD delivery. As to the method: as §1, §2, §3
In another series the test system is A2780 cells. The description is as above. It is filed as cell-based, human. As to conditions: SAINT-PhD delivery. As to the method:
as §1, §2, §3

The target in series [3] is T1, recombinant human thymidylate synthase (hTS). As to conditions: at 100 µM; ref [20]; cited from earlier work.

T1 sequence (P04818 whole entry): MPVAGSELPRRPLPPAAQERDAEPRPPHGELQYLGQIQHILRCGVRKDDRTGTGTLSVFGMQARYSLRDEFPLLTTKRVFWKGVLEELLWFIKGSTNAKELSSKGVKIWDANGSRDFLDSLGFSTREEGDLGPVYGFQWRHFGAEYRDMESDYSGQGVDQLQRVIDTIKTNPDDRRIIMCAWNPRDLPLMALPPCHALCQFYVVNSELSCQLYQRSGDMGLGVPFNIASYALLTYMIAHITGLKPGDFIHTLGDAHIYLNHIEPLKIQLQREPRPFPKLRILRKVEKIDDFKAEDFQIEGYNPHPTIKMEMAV

Turning to `CC(C)C[C@@H]1NC(=O)[C@H](CCC(N)=O)NC(=O)[C@@H]2CCCN2C(=O)[C@@H](NC(=O)[C@@H](N)CC(C)C)CSSC[C@@H](C(=O)N[C@@H](CCC(N)=O)C(=O)N[C@@H](CCCNC(=N)N)C(=O)O)NC1=O` [Peptide 6, Leu-c[Cys-Pro-Gln-Leu-Cys]-Gln-Arg] (H-LCPQLCQR-OH; disulfide 2-6), the “% inhibition of hTS” value in series [1] and in series [2] was “inactive” throughout. Besides, the “cytotoxicity (in words)” value is given as “least active; also recorded: almost non-cytotoxic” with IGROV-1 cells, “almost non-cytotoxic” in the series on A2780/CP cells and “almost non-cytotoxic” in the series on A2780 cells.

Regarding “LSPQLYQR [[Pro^3]LR, proline mutant of LR]”, the “% inhibition of hTS” value in series [3] was 25% at 100 µM ^c.

Regarding `CC(C)C[C@@H]1NC(=O)[C@H](CCC(N)=O)NC(=O)[C@@H]2CCCN2C(=O)[C@@H](NC(=O)[C@@H](N)CC(C)C)CSSCCNC(=O)[C@H](CCCNC(=N)N)NC(=O)[C@H](CCC(N)=O)NC(=O)[C@H](Cc2ccc(O)cc2)NC1=O` [Peptide 9, Leu-c[Cys-Pro-Gln-Leu-Tyr-Gln-Arg-CAM]] (H-LCPQLYQR-Cysteamide; disulfide 2-C), the “% inhibition of hTS” value in series [1] is “inactive; also recorded: N.I. at 500 µM and r.t. N.I. at 500 µM and 37 °C under stirring”; in series [2] it was “inactive; also recorded: N.I. at 500 µM and r.t. N.I. at 500 µM and 37 °C under stirring”. Moreover, in the series with IGROV-1 cells, the “cytotoxicity (in words)” value is “intermediate cytotoxicities”.

For `CC(C)C[C@@H]1NC(=O)[C@H](CCC(N)=O)NC(=O)[C@@H]2CCCN2C(=O)[C@@H](NC(=O)[C@@H](N)CC(C)C)CSSC[C@@H](C(=O)O)NC(=O)[C@H](CCC(N)=O)NC(=O)[C@H](Cc2ccc(O)cc2)NC1=O` [Peptide 8, Leu-c[Cys-Pro-Gln-Leu-Tyr-Gln-Cys]] (H-LCPQLYQC-OH; disulfide 2-8), the pIC50 (as a rule, −log10 of the IC50, conventionally taken in molar units) in series [1] is 3.07. Besides, the inhibition (in general, the relative decrease from the control value, in per cent) at 500 µM in series [2] is 38%. For the same compound, the “cytotoxicity (in words)” value in the series with IGROV-1 cells is listed as “least active”.

As to `CC(C)C[C@@H]1NC(=O)[C@H](CCC(N)=O)NC(=O)[C@H](C)NC(=O)[C@@H](NC(=O)[C@@H](N)CC(C)C)CSSC[C@@H](C(=O)O)NC(=O)[C@H](CCC(N)=O)NC(=O)[C@H](Cc2ccc(O)cc2)NC1=O` [Peptide 2, Leu-c[Cys-Ala-Gln-Leu-Tyr-Gln-Cys]] (H-LCAQLYQC-OH; disulfide 2-8), the pIC50 in series [1] is 3.05. The inhibition at 400 µM in series [2] (at 400 µM and r.t. under stirring) was determined as 36%. Moreover, the “cytotoxicity (in words)” value in the series on IGROV-1 cells is “least active”.

Take `CC(C)C[C@@H]1NC(=O)[C@H](CCC(N)=O)NC(=O)[C@@H]2CCCN2C(=O)[C@H](CO)NC(=O)[C@@H](N)CSSC[C@@H](C(=O)O)NC(=O)[C@H](CCC(N)=O)NC(=O)[C@H](Cc2ccc(O)cc2)NC1=O` [Peptide 10] (H-CSPQLYQC-OH; disulfide 1-8): the pIC50 in series [1] is 3.32. The inhibition at 500 µM in series [2] is 50%. The “cytotoxicity (in words)” value with IGROV-1 cells is on record as “intermediate cytotoxicities”.

Consider `CC(C)C[C@@H]1NC(=O)[C@H](CCC(N)=O)NC(=O)[C@@H]2CCCN2C(=O)[C@@H](NC(=O)[C@@H](N)CC(C)C)CSSC[C@@H](C(=O)N[C@@H](CCCNC(=N)N)C(=O)O)NC(=O)[C@H](Cc2ccc(O)cc2)NC1=O` [Peptide 7, Leu-c[Cys-Pro-Gln-Leu-Tyr-Cys]-Arg] (H-LCPQLYCR-OH; disulfide 2-7), for which the inhibition at 100 µM in series [2] (at 100 µM and r.t. under stirring) was determined as 59%. In addition, the inhibition at 500 µM in series [2] was found to be 76%. Moreover, the pKi (commonly the negative decadic logarithm of the Ki, by convention in mol/L) in series [2] (kinetic inhibition pattern, Figure S1, read-out: apparent KI) was 3.82 to 3.92. Besides, the “cytotoxicity (in words)” value in the series with IGROV-1 cells was “intermediate cytotoxicities”.
